Laboratory results from ChEMBL document CHEMBL4020762, “Protective effect of lanostane triterpenoids from the sclerotia of Poria cocos Wolf against cisplatin-induced apoptosis in LLC-PK1 cells” (2017).
The source made the active and inactive calls. The rule behind the calls is not given here.

Assays:
[1] = system: LLC-PK1; test: Renoprotective activity in pig LLC-PK1 cells assessed as inhibition of cisplatin-induced damage by measuring increase in cell viability at 10 to 100 uM preincubated for 2 hrs followed by cisplatin addition after 24 hrs by Ez-Cytox reagent based assay; type: functional; details: Sus scrofa
[2] = system: LLC-PK1; test: Renoprotective activity in pig LLC-PK1 cells assessed as inhibition of cisplatin-induced apoptosis by measuring apoptotic cells at 50 to 100 uM preincubated for 2 hrs followed by cisplatin addition after 24 hrs by annexin-V Alexa Fluor488/propidium iodide staining based cytometric method (reference value: 26.3%); type: functional, Sus scrofa
[3] = system: LLC-PK1; test: Renoprotective activity in pig LLC-PK1 cells assessed as inhibition of cisplatin-induced damage by measuring increase in cell viability preincubated for 2 hrs followed by cisplatin addition after 24 hrs by Ez-Cytox reagent based assay; type: functional; details: Sus scrofa
[4] = species: Sus scrofa; test: Inhibition of cisplatin-induced increase in phosphorylated JNK levels in pig LLC-PK1 cells at 50 to 100 uM pretreated for 2 hrs followed by cisplatin addition after 24 hrs by radioimmunoprecipitation assay; type: cell-based
[5] = species: Sus scrofa; test: Inhibition of cisplatin-induced increase in phosphorylated ERK levels in pig LLC-PK1 cells at 50 to 100 uM pretreated for 2 hrs followed by cisplatin addition after 24 hrs by radioimmunoprecipitation assay; type: cell-based
[6] = system: LLC-PK1; test: Renoprotective activity in pig LLC-PK1 cells assessed as inhibition of cisplatin-induced damage by measuring cell viability at 50 to 100 uM preincubated for 2 hrs followed by cisplatin addition after 24 hrs by Ez-Cytox reagent based assay (reference value: 60%); type: functional, Sus scrofa
[7] = species: Sus scrofa; test: Inhibition of cisplatin-induced increase in phosphorylated p38 MAPK levels in pig LLC-PK1 cells at 50 to 100 uM pretreated for 2 hrs followed by cisplatin addition after 24 hrs by radioimmunoprecipitation assay; type: cell-based
[8] = system: LLC-PK1; test: Renoprotective activity in pig LLC-PK1 cells assessed as inhibition of cisplatin-induced increase in caspase-3 cleavage at 50 to 100 uM preincubated for 2 hrs followed by cisplatin addition after 24 hrs by radioimmunoprecipitation assay; type: functional, cell-based; details: Sus scrofa
[9] = system: A2780; test: Potentiation of cisplatin-induced cytotoxicity against human A2780 cells up to 100 uM after 24 hrs in presence of cisplatin by Ez-Cytox reagent based assay; type: functional, cell-based
[10] = system: A2780; test: Potentiation of cisplatin-induced cytotoxicity against human A2780 cells after 24 hrs in presence of cisplatin by Ez-Cytox reagent based assay; type: functional, cell-based

SMILES	inhibition [1]	inhibition (INH) [2]	inhibition [3]	inhibition [4]	inhibition [5]	inhibition (INH) [6]	inhibition [7]	inhibition [8]	Activity [9]	Activity [10]
O=c1c(O)c(-c2ccc(O)c(O)c2)oc2cc(O)cc(O)c12	Active									
C=C(CC[C@@H](C(=O)O)[C@H]1CC[C@@]2(C)C3=CC[C@H]4C(C)(C)[C@@H](OC(C)=O)CC[C@]4(C)C3=CC[C@]12C)C(C)C		4.3%	Dose-dependent effect	Active	Active	<=80%	Active	Active	Active	
CC(=O)O[C@H]1CC[C@]2(C)C3=CC[C@]4(C)[C@@H]([C@@H](CCC=C(C)C)C(=O)O)CC[C@@]4(C)C3=CC[C@H]2C1(C)C			Dose-dependent effect							inactive
